The results in this text go back to patent US20180230127A1 (PFIZER INC., priority 2015, published 2018).

SMILES strings stand for the structures. Counter-ions that a name gives are not always drawn.

The assay deals with T1, human IRAK4 kinase domain (aa 154-460) (Homo sapiens, UniProt Q9NWZ3).
T1 construct: human IRAK4 kinase domain (aa 154-460; GenBank ID AF445802)
T1 sequence (Q9NWZ3 154-460): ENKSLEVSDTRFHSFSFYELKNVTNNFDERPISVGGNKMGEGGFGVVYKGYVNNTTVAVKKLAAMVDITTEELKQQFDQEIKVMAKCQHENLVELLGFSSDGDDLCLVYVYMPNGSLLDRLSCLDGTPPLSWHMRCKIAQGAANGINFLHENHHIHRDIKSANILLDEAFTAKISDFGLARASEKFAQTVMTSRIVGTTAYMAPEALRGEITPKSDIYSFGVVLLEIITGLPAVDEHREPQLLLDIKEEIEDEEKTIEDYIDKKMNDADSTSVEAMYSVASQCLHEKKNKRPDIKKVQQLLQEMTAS
Description: IRAK4 Enzymatic DELFIA Assay. Type of assay: biochemical. Particulars: 0.6 mM ATP (KM); 114 pM IRAK4 kinase domain; 200 nM substrate; 5% DMSO. As for the experimental part: IRAK4 Enzymatic DELFIA Assay.
This is an in vitro assay to measure IRAK4 enzymatic activity utilizing the DELFIA (Dissociation-Enhanced Lanthanide Fluorescent Immunoassay, Perkin-Elmer) platform, with the human IRAK4 kinase domain (aa 154-460) construct to characterize IRAK4 inhibitor and control compounds at 0.6 mM ATP (KM). The final amount of enzyme in the assay is 114 pM IRAK4 kinase domain, final concentration of substrate is 200 nM, and final concentration of DMSO is 5%.
The test compound was solubilized in DMSO to a stock concentration of 30 mM. The dose response plates were prepared with a 2 mM primary compound concentration, and then diluted in DMSO in a four-fold series for a total of 10 data points. Compounds were prepared as a 20-fold multiple of the final in-assay concentration
To begin the assay, 45 μL of reaction mixture containing 20 mM HEPES pH=7.5, 5 mM MgCl2, 0.0025% Brij-35, […], 228 pM phosphorylated recombinant human IRAK4 kinase domain (aa 154-460; GenBank ID AF445802) were aliquoted into Ultra-Clear Polypropylene, 96-well, U-Bottom Plates (Corning Life Sciences). 5 μL of test compound from the dose-response plate was added to the reaction mixture and incubated for 15 minutes at room temperature. Then 50 μL of 20 mM HEPES pH=7.5, 5 mM MgCl2, 0.0025% Brij-35, 600 μM ATP, and 400 nM ERM-biotinylated peptide (AGAGRDKYKTLRQIR) were added to start the reaction. The reaction was incubated for 90 minutes at room temperature and stopped by the addition of 25 μL 0.5M EDTA.
100 μL of the reaction mixture was transferred to a streptavidin coated detection plate (EvenCoat Streptavidin Coated Plates, 96-Well, R&D Systems) and incubated for 30 minutes at room temperature. The plates were washed 4 times with 100 μL per well of PBS containing 0.05% Tween-20. Plates were then incubated with 50 μL per well of antibody cocktail of Anti-pERM antibody (Cell Signaling Technology) diluted 1:5000, plus Anti-Rabbit IgG EuN1 at 0.242 μg/ml (Perkin-Elmer Life Sciences) in a solution of 10 mM MOPS pH=7.5, 150 mM NaCl, 0.05% Tween-20, 0.02% NaN3, 1% BSA, 0.1% Gelatin for 45 minutes. The plates were washed 4× with 100 μL per well of PBS containing 0.05% Tween-20. Then 100 μL per well of DELFIA Enhancement Solution were added to the plate and then read on an EnVision Model 2103 using a 340 nm excitation wavelength and a 665 nm emission detection.
The term IC50 denotes the concentration needed to halve the response being measured. `CC(C)Oc1cc2c(O[C@H]3C[C@H]4CC[C@@H](C3)N4)nccc2cc1C(N)=O` [Example 80, 1-[(3-endo)-8-azabicyclo[3.2.1]oct-3-yloxy]-7-(propan-2-yloxy)isoquinoline-6-carboxamide]: the IC50 worked out at 1320 nM. In other words, the single-digit micromolar range.
`CC(C)Oc1cc2c(O[C@@H]3CCN(C(=O)CC#N)C3)ccnc2cc1C(N)=O` [Example 40, 4-{[(3R)-1-(cyanoacetyl)pyrrolidin-3-yl]oxy}-6-(propan-2-yloxy)quinoline-7-carboxamide]: the IC50 is 82 nM.
For `CC(C)Oc1cc2c(O[C@@H]3CCCNC3)ncc(Br)c2cc1C(N)=O` [Example 54, 4-bromo-1-[(3R)-piperidin-3-yloxy]-7-(propan-2-yloxy)isoquinoline-6-carboxamide hydrochloride], the midpoint of inhibition, the IC50, lay at 591 nM.
Compound `CC(C)Oc1cc2c(O[C@@H]3CCN(C(=O)CC#N)C3)nccc2cc1C(N)=O` [Example 2, 1-{[(3R)-1-(cyanoacetyl)pyrrolidin-3-yl]oxy}-7-(propan-2-yloxy)isoquinoline-6-carboxamide formate] gave an IC50 of 66 nM.
Take `CC(C)Oc1cc2c(O[C@@H]3CCCN(C(=O)CC#N)C3)nccc2cc1C(N)=O` [Example 36, 1-{[(3R)-1-(cyanoacetyl)piperidin-3-yl]oxy}-7-(propan-2-yloxy)isoquinoline-6-carboxamide]: the IC50 was 5 nM.
Turning to `CC(C)Oc1cc2c(O[C@@H]3CCCNC3)cccc2cc1C(N)=O` [Example 69, (R)-3-isopropoxy-5-(piperidin-3-yloxy)-2-naphthamide trifluoroacetate], the IC50 amounted to 36 nM.
`CC(C)Oc1cc2c(OC3CCN(C(=O)CO)CC3)nccc2cc1C(N)=O` [Example 51, 1-{[1-(hydroxyacetyl)piperidin-4-yl]oxy}-7-(propan-2-yloxy)isoquinoline-6-carboxamide]: the half-inhibitory concentration (IC50) worked out at 157 nM. This IC50 lies about 4.4-fold higher than the previous one.
With `CC(C)Oc1cc2c(O[C@@H]3CCCN(C(=O)[C@H](N)CC#N)C3)ccnc2cc1C(N)=O` [Example 48, 4-({(3R)-1-[(2R)-2-amino-3-cyanopropanoyl]piperidin-3-yl}oxy)-6-(propan-2-yloxy)quinoline-7-carboxamide trifluoroacetate], the IC50 was 299 nM.
In the case of `CC(C)Oc1cc2c(O[C@@H]3CCNC[C@@H]3F)ccnc2cc1C(N)=O` [Example 20, 1-{[(3S.4R)-3-fluoropiperidin-4-yl]oxy}-7-(propan-2-yloxy)isoquinoline-6-carboxamide] it was 150 nM.
Consider `CC(C)Oc1cc2c(O[C@@H]3CCNC[C@H]3F)nccc2cc1C(N)=O` [Example 19, 1-{[(3R,4R)-3-fluoropiperidin-4-yl]oxy}-7-(propan-2-yloxy)isoquinoline-6-carboxamide], for which the midpoint of inhibition, the IC50, lay at 39 nM.
In turn, `CC(C)Oc1cc2c(O[C@@H]3CCNC3)ccnc2cc1C(N)=O` [Example 77, 6-(propan-2-yloxy)-4-[(3R)-pyrrolidin-3-yloxy]quinoline-7-carboxamide] came in with an IC50 of 1230 nM. Against the preceding compound, the IC50 is about 32-fold higher.
In the case of `CC(C)Oc1cc2c(OC3CCN(C(=O)CC#N)CC3)nccc2cc1C(N)=O` [Example 50, 1-{[1-(cyanoacetyl)piperidin-4-yl]oxy}-7-(propan-2-yloxy)isoquinoline-6-carboxamide] it was 514 nM; in that of `CC(C)Oc1cc2c(O[C@@H]3CCCN(C(=O)c4cnco4)C3)ccnc2cc1C(N)=O` [Example 11, 4-{[(3R)-1-(1,3-oxazol-5-ylcarbonyl)piperidin-3-yl]oxy}-6-(propan-2-yloxy)quinoline-7-carboxamide formate], 560 nM; in that of `CC(C)Oc1cc2c(O[C@H]3CN(C(=O)CC#N)CC[C@@H]3C)nccc2cc1C(N)=O` [Example 49, 1-{[(3R,4S)-1-(cyanoacetyl)-4-methylpiperidin-3-yl]oxy}-7-(propan-2-yloxy)isoquinoline-6-carboxamide], 29 nM.
In the case of `CC(C)COc1cc2c(O[C@@H]3CCCNC3)ccnc2cc1C(N)=O` [Example 76, 6-(2-methylpropoxy)-4-[(3R)-piperidin-3-yloxy]quinoline-7-carboxamide] it was 2280 nM.
In the case of `Cc1cnc(O[C@@H]2CCCNC2)c2cc(OC(C)C)c(C(N)=O)cc12` [Example 56, 4-methyl-1-[(3R)-piperidin-3-yloxy]-7-(propan-2-yloxy)isoquinoline-6-carboxamide hydrochloride] it was 288 nM; in that of `COc1cc2c(O[C@@H]3CCCNC3)ccnc2cc1C(N)=O` [Example 22, 6-methoxy-4-[(3R)-piperidin-3-yloxy]quinoline-7-carboxamide hydrochloride], 428 nM; in that of `CC(C)Oc1cc2c(O[C@@H]3CCCN(C(=O)C(C)(N)CO)C3)ccnc2cc1C(N)=O` (mixture of isomers) [Example 12, Racemic-4-{[(3R)-1-(2-amino-3-hydroxy-2-methylpropanoyl)piperidin-3-yl]oxy}-6-(propan-2-yloxy)quinoline-7-carboxamide formate], 626 nM.
The compound `CC(C)Oc1cc2c(O[C@@H]3CCCNC3)ccnc2cc1C(N)=O` [Example 58, (R)-4-(piperidin-3-yloxy)-6-(propan-2-yloxy)quinoline-7-carboxamide hydrochloride] gave an IC50 of 135 nM. This IC50 lies about 4.6-fold lower than the previous one.
To `Cc1cc(O[C@@H]2CCCN(C(=O)CO)C2)c2cc(OC(C)C)c(C(N)=O)cc2n1` [Example 42, 4-{[(3R)-1-(hydroxyacetyl)piperidin-3-yl]oxy}-2-methyl-6-(propan-2-yloxy)quinoline-7-carboxamide] belongs 388 nM.
`CC(C)Oc1cc2c(OC3CCCNC3)nccc2cc1C(N)=O` (stereo not drawn) [Example 64, 1-(piperidin-3-yloxy)-7-(propan-2-yloxy)isoquinoline-6-carboxamide hydrochloride]: it took 160 nM to reach half-maximal inhibition (IC50).
Take `CC(C)Oc1cc2c(O[C@@H]3CCCN(C(=O)CO)C3)ccnc2cc1C(N)=O` [Example 4, 4-{[(3R)-1-(hydroxyacetyl)piperidin-3-yl]oxy}-6-(propan-2-yloxy)quinoline-7-carboxamide formate]: the half-maximal inhibitory concentration (IC50) turned out to be 13 nM. Compared with the last compound, the IC50 is about 12-fold lower.
On to `CC(O)CN1CCC(Oc2nccc3cc(C(N)=O)c(OC(C)C)cc23)CC1` (stereo not drawn) [Example 41, 1-{f[1-(2-hydroxypropyl)piperidin-4-yl]oxy}-7-(propan-2-yloxy)isoquinoline-6-carboxamide], for which 883 nM corresponded to half-maximal inhibition (IC50).
In the case of `CCC(=O)N1CCC[C@@H](Oc2ccnc3cc(C(N)=O)c(OC(C)C)cc23)C1` [Example 10, 4-{[(3R)-1-propanoylpiperidin-3-yl]oxy}-6-(propan-2-yloxy)quinoline-7-carboxamide formate], the midpoint of inhibition, the IC50, lay at 506 nM.
With `CC(C)Oc1cc2c(O[C@H]3CCN(C(=O)CC#N)[C@@H]3C)ccnc2cc1C(N)=O` [Example 17, 4-{[(2R,3S)-1-(cyanoacetyl)-2-methylpyrrolidin-3-yl]oxy}-6-(propan-2-yloxy)quinoline-7-carboxamide formate], the IC50 worked out at 111 nM.
In turn, `CC(C)Oc1cc2c(OC3CCCN(S(C)(=O)=O)C3)ccnc2cc1C(N)=O` (stereo not drawn) [Example 45, 4-{[1-(methylsulfonyl)piperidin-3-yl]oxy}-6-(propan-2-yloxy)quinoline-7-carboxamide] yielded an IC50 of 254 nM.
As to `CC(C)Oc1cc2c(O[C@H]3CCN(C(=O)CC#N)C3)nccc2cc1C(N)=O` [Example 1, 1-{[(3S)-1-(cyanoacetyl)pyrrolidin-3-yl]oxy}-7-(propan-2-yloxy)isoquinoline-6-carboxamide formate], the IC50 was found to be 53 nM.
